# In patent US9701670B2, “Pyrazolyl-ureas as kinase inhibitors” (RESPIVERT LIMITED, priority 2013, dated 2017):
# How the values were obtained:
# [1] = target: T1, p38 MAPKα isoform (MAPK14) (Homo sapiens (Human), UniProt Q16539); assay: p38 MAPKα enzyme inhibition (FRET, Z-LYTE), Method 1; assay type: biochemical; conditions: Method 1 (Table 4a1)
# [2] = target: T1, p38 MAPKα isoform (MAPK14); assay: p38 MAPKα enzyme inhibition (FRET, Z-LYTE), Method 2; assay type: biochemical; conditions: Method 2, different laboratory (Table 4a2)
# [3] = target: Syk (Homo sapiens (Human), UniProt P43405); assay: Syk enzyme inhibition (FRET, Z-LYTE); assay type: biochemical; conditions: different laboratory (Table 4a2)
# Protocol: (§1) The enzyme inhibitory activities of compounds disclosed herein are determined by FRET using synthetic peptides labelled with both donor and acceptor fluorophores (Z-LYTE, Invitrogen Ltd., Paisley, UK).
# The relevant enzyme (3000 ng/mL or 2000 ng/mL respectively, 2.5 μL) is incubated with the test compound (either 4 μg/mL, 0.4 μg/mL, 0.04 μg/mL, or 0.004 μg/mL, 2.5 μL each) for 2 hr at RT. The FRET peptides (8 μM, 2.5 μL), and appropriate ATP solutions (2.5 μL, 800 μM for c-Src, and 60 μM ATP for Syk) are then added to the enzymes/compound mixtures and incubated for 1 hr. Development reagent (protease, 5 μL) is added for 1 hr prior to detection in a fluorescence microplate reader (Varioskan® Flash, ThermoFisher Scientific).
# (§2) In all cases, the site-specific protease cleaves non-phosphorylated peptide only and eliminates the FRET signal. Phosphorylation levels of each reaction are calculated using the ratio of coumarin emission (donor) over fluorescein emission (acceptor), for which high ratios indicate high phosphorylation and low ratios indicate low phosphorylation levels.
# [4] = test system: Differentiated U937 cells; assay: (l) Cell viability: MTT assay; assay type: cell-based, human; conditions: 1 μg/mL
# In short: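 MTT read-out (1 h, absorbance 550 nm) on d-U937 cells after pre-incubation with 1 or 10 μg/mL compound under two regimes: 4 h, 5% FCS, or 24 h, 10% FCS RPMI1640. Values are percent loss of viability relative to vehicle (0.5% DMSO), so increases are reported as negative.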
# [5] = test system: β-catenin in d-U937 cells; assay: (m) Accumulation of β catenin in d-U937 cells; assay type: cell-based, human
# In short: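 PMA-differentiated U937 macrophage-type cells (100 ng/mL, 48–72 hr) were exposed to test compound or vehicle for 18 hr, then fixed. β-catenin was measured by cell ELISA (HRP/TMB, OD450-655) and normalised to crystal violet OD595. Signals below 15% of the standard control were designated "-ve".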
# [6] = test system: Balb/c mice; assay: (A) LPS-induced neutrophil accumulation in mice; assay type: in vivo, mouse; conditions: mice, test substance at 0.2 mg/mL, dosed 8 hr pre-LPS challenge; for Neutrophil numbers in BAL: +/−SEM, N = 8
# Protocol: […] At T=0, mice are placed into an exposure chamber and exposed to LPS (7.0 mL, 0.5 mg/mL solution in PBS) for 30 min). After a further 8 hr the animals are anesthetized, their tracheas cannulated and BALF extracted by infusing and then withdrawing from their lungs 1.0 mL of PBS via the tracheal catheter. Total and differential white cell counts in the BALF samples are measured using a Neubaur haemocytometer. Cytospin smears of the BALF samples are prepared by centrifugation at 200 rpm for 5 min at RT and stained using a DiffQuik stain system (Dade Behring). Cells are counted using oil immersion microscopy. Data for neutrophil numbers in BAL are shown as mean±S.E.M. (standard error of the mean). The percentage inhibition of neutrophil accumulation is calculated for each treatment relative to vehicle treatment.
# [7] = test system: HRV16; assay: (j) HRV16 induced CPE in MRC5 cells; assay type: cell-based; conditions: HRV-16
# Protocol: The supernatants are aspirated, and then fresh media added followed by incubation for 4 days. Where appropriate, cells are pre-incubated with compound or DMSO for 2 hr, and the compounds and DMSO added again after washout of the virus.
# After washing, 1% SDS in distilled water (100 μL) is added to each well, and the plates are shaken lightly for 1-2 hr prior to reading the absorbance at 660 nm. The percentage inhibition for each well is calculated. The IC50 value is calculated from the concentration-response curve generated by the serial dilutions of the test compounds.
# [8] = test system: HCK; assay: Enzyme binding assay (Kinomescan)
# Protocol: These assays were conducted by DiscoverX (formerly Ambit; San Diego, Calif.). The percentage inhibition produced by incubation with a test compound is calculated relative to the non-inhibited control.
# [9] = target: GSK 3α (Homo sapiens (Human), UniProt P49840); assay: GSK 3α enzyme inhibition (FRET, Z-LYTE), Method 1; assay type: biochemical; conditions: Method 1 (Table 4a1); read-out: IC50 Values for Enzyme Inhibition GSK3α
# Protocol: as §1
# The inhibitory activities of compounds of the invention against the GSK 3α enzyme isoform (Invitrogen), are evaluated by determining the level of activation/phosphorylation of the target peptide. The GSK3-α protein (500 ng/mL, 2.5 μL) is mixed with the test compound (2.5 μL at either 4 μg/mL, 0.4 μg/mL, 0.04 μg/mL, or 0.004 μg/mL) for 2 hr at RT. The FRET peptide (8 μM, 2.5 μL), which is a phosphorylation target for GSK3α, and ATP (40 μM, 2.5 μL) are then added to the enzyme/compound mixture and the resulting mixture incubated for 1 hr. Development reagent (protease, 5 μL) is added for 1 hr prior to detection in a fluorescence microplate reader (Varioskan® Flash, ThermoFisher Scientific).
# as §2
# T1 sequence (Q16539 whole entry, canonical isoform): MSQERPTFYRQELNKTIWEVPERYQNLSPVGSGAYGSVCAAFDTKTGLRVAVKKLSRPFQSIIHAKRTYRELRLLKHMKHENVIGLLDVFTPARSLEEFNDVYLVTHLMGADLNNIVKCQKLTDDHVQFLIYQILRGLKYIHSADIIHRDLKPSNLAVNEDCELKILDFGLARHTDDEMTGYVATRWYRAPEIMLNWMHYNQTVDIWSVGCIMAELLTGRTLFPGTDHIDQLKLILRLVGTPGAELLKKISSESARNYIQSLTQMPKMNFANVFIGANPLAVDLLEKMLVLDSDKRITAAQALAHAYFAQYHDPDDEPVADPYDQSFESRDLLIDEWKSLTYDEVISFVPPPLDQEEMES
# GSK 3α, sequence (P49840 whole entry): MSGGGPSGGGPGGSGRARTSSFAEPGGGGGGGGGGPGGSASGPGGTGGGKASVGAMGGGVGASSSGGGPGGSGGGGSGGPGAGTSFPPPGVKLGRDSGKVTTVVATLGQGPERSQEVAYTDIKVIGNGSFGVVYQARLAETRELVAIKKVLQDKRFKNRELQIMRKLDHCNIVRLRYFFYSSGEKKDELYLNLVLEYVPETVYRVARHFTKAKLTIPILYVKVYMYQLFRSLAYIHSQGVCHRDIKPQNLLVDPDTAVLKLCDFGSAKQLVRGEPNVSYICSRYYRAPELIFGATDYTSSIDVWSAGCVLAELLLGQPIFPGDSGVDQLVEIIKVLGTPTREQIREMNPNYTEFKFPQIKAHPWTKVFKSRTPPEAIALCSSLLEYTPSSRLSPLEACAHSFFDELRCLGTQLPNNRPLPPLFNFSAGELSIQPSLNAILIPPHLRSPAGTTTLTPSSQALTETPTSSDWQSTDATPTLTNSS
SMILES,IC50 [1],IC50 [2],IC50 [3],Cell viability at time point in d-U937 cells 4 h [4],Cell viability at time point in d-U937 cells 24 h [4],"β-catenin inductive effect relative to the effect produced by the Reference Compound at 1 μg/mL ([5]; test concentration of 10 μg/mL, found to be negative)",% inhibition of neutrophil numbers in BAL [6],Neutrophil numbers in BAL [6],IC50 [7],% Inhibition of kinase binding at 500 nM HCK [8],% β-catenin induction ([5]; 1 μg/mL test compound),IC50 [9]
"COc1cc(Nc2nccc(Oc3ccc(NC(=O)Nc4cc(C(F)(F)C(F)(F)F)nn4-c4ccc(C)cc4)c4ccccc34)n2)cc(C(=O)NCCN2CCOCC2)c1 [Example 9, 3-Methoxy-N-(2-morpholinoethyl)-5-((4-((4-(3-(3-(perfluoroethyl)-1-(p-tolyl)-1H-pyrazol-5-yl)ureido)naphthalen-1-yl)oxy)pyrimidin-2-yl)amino)benzamide]",49 nM,174 nM,43 nM,"−ve (−ve and +ve indicate that the value is below and above respectively, the no significant effect threshold, defined as 30% inhibition at 1 μg/mL at the time point indicated.)","−ve (−ve and +ve indicate that the value is below and above respectively, the no significant effect threshold, defined as 30% inhibition at 1 μg/mL at the time point indicated.)",less than 15%,51%,8.0 ± 1.6 ×10^5/mL,–,–,–,–
"COc1ccc(-n2nc(C(C)C)cc2NC(=O)Nc2ccc(Oc3ccnc(Nc4cc(OC)cc(C(=O)NCCN5CCOCC5)c4)n3)c3ccccc23)cc1 [Example 53, 3-((4-((4-(3-(3-isopropyl-1-(4-methoxyphenyl)-1H-pyrazol-5-yl)ureido)naphthalen-1-yl)oxy)pyrimidin-2-yl)amino)-5-methoxy-N-(2-morpholinoethyl)benzamide]",2 nM,37 nM,–,"−ve (−ve and +ve indicate that the value is below and above respectively, the no significant effect threshold, defined as 30% inhibition at 1 μg/mL at the time point indicated.)","−ve (−ve and +ve indicate that the value is below and above respectively, the no significant effect threshold, defined as 30% inhibition at 1 μg/mL at the time point indicated.)",–,–,–,2 nM,–,–,–
"COCC(=O)Nc1cc(Oc2ccc(NC(=O)Nc3cc(C(C)(C)C)nn3-c3ccc(C)cc3)c3ccccc23)ccn1 [Reference Compound, N-(4-(4-(3-(3-tert-butyl-1-p-tolyl-1H-pyrazol-5-yl)ureido)naphthalen-1-yloxy)pyridin-2-yl)-2-methoxyacetamide, reference compound]",–,–,–,"−ve (−ve and +ve indicate that the value is below and above respectively, the no significant effect threshold, defined as 30% inhibition at 1 μg/mL at the time point indicated.)","+ve (−ve and +ve indicate that the value is below and above respectively, the no significant effect threshold, defined as 30% inhibition at 1 μg/mL at the time point indicated.)",–,60%,5.6 ± 0.86 ×10^5/mL,–,100%,208%,–
"COc1cc(Nc2nccc(Oc3ccc(NC(=O)Nc4cc(C(C)C)nn4-c4ccc(C)cc4)c4ccccc34)n2)cc(C(=O)NCCO)c1 [Example 63, N-(2-hydroxyethyl)-3-((4-((4-(3-(3-isopropyl-1-(p-tolyl)-1H-pyrazol-5-yl)ureido)naphthalen-1-yl)oxy)pyrimidin-2-yl)amino)-5-methoxybenzamide]",45 nM,–,–,"−ve (−ve and +ve indicate that the value is below and above respectively, the no significant effect threshold, defined as 30% inhibition at 1 μg/mL at the time point indicated.)","−ve (−ve and +ve indicate that the value is below and above respectively, the no significant effect threshold, defined as 30% inhibition at 1 μg/mL at the time point indicated.)",–,–,–,–,–,–,13000 nM
